Test results from BindingDB's records for doi:10.1016/S0960-894X(98)00531-9 (Glaxo Wellcome Research and Development, 1999).

Biological target: T1, Chymotrypsin-C (Homo sapiens, UniProt Q99895)
T1 sequence (Q99895 whole entry): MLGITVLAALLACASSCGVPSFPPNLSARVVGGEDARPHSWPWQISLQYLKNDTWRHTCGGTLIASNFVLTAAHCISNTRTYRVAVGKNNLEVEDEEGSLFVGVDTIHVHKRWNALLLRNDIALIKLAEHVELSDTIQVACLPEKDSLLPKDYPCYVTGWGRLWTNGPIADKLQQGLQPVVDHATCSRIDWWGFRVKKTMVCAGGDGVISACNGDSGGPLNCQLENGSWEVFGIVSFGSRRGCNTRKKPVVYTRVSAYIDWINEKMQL
Experiment: ChEBML_49751
Experimental: Compound was evaluated for the inhibition of Chymotrypsinogen

| IC50 [µM] | SMILES |
| --- | --- |
| > 100 | N=C(N)c1ccc(C[C@H]2C(=O)O[C@H]3CCC[C@@H]32)cc1 [4-((3R,3aR,6aS)-2-Oxo-hexahydro-cyclopenta[b]furan-3-ylmethyl)-benzamidine; compound with acetic acid] |

Biological target: not listed separately
Experiment: Compound was evaluated for the inhibition of Chymotrypsinogen

| IC50 [µM] | SMILES |
| --- | --- |
| > 100 | CC(C)=CC(=O)C[C@@H]1C(=O)O[C@H]2CCC[C@@H]21 [(3S,3aR,6aS)-3-(4-Methyl-2-oxo-pent-3-enyl)-hexahydro-cyclopenta[b]furan-2-one] |
| > 100 | N=C(N)c1cccc(C[C@H]2C(=O)O[C@H]3CCC[C@@H]32)c1 [3-((3R,3aR,6aS)-2-Oxo-hexahydro-cyclopenta[b]furan-3-ylmethyl)-benzamidine; compound with acetic acid] |
| > 100 | O=C1O[C@H]2CCC[C@@H]2[C@@H]1Sc1ccccc1 [(3S,3aS,6aS)-3-Phenylsulfanyl-hexahydro-cyclopenta[b]furan-2-one] |
| > 100 | O=C1O[C@H]2CCC[C@@H]2[C@H]1Cc1ccccc1 [(3R,3aR,6aS)-3-Benzyl-hexahydro-cyclopenta[b]furan-2-one] |
| > 100 | N=C(N)CCCC[C@H]1C(=O)O[C@H]2CCC[C@@H]21 |
| > 0.1 | O=C1O[C@H]2CCC[C@@H]2[C@H]1Sc1ccccc1 [(3R,3aS,6aS)-3-Phenylsulfanyl-hexahydro-cyclopenta[b]furan-2-one] |
| > 100 | O=C1O[C@H]2CCC[C@@H]2[C@@H]1Cc1ccccc1 [(3S,3aR,6aS)-3-Benzyl-hexahydro-cyclopenta[b]furan-2-one] |
